Measurements as given in US6461997B1, “Triazole sulfones having herbicidal activity” (Monsanto Technology LLC, priority 1999, dated 2002).

The compounds below were run on SASKR (russian thistle) (assay: Pre-emergence herbicidal activity, cool season). Details: lowest tested rate with 80% or greater inhibition; rates 300, 100, 30, 10 g/ha; about 14 days.
Assay type: in vivo, Salsola kali
Protocol: (§1) Tables 5 to 8 summarize results of tests conducted as described below to determine the pre-emergence herbicidal activity, in the form of a GR80 value, of illustrative compounds of this invention. […] Compounds of the invention were typically applied at rates of 300, 100, 30, and 10 g/ha. Where herbicidal activity was evident but 80% inhibition was not achieved at the highest rate tested, an asterisk (*) is shown in the following tables.
(§2) The pre-emergence tests were conducted by the following procedure. Topsoil was sieved to pass through a 1.27 cm screen. Fertilizer was added to the topsoil and the mixture was then sterilized by heating. The topsoil mixture was placed in a pot and compacted to a depth of 1.0 to 1.25 cm from the top of the pot. Seeds of each of several monocotyledonous and dicotyledonous annual plant species were placed on top of the soil. Additional soil was subsequently placed over the seeds to level-fill the pot. A known amount of each test compound dissolved or suspended in an appropriate organic solvent was diluted with a 50:50 mix of acetone and water and applied to the surface of the soil. After treatment the plants were placed in a greenhouse where they received 0.64 cm of overhead irrigation. All subsequent watering consisted of a light overhead mist and/or subirrigation as needed for germination and growth. Tables 5 and 6 below relate to warm season plant species which were placed after pre-emergence treatment in a greenhouse with a 30/21° C. day/night temperature regime. Tables 7 and 8 below relates to cool season plant species placed after pre-emergence treatment in a greenhouse or growth chamber with an 18/13° C. day/night temperature regime.
(§3) Approximately 14 days after planting and treating, the plants were observed and herbicidal efficacy recorded as percent inhibition by comparison with untreated plants.
(§4) The plant species usually regarded as weeds which were utilized in the tests are identified in the tables below according to the following legend, in which “d” indicates a dicotyledonous species and “m” a monocotyledonous species. All monocotyledonous species included in the tests herein are grasses.

Structure (SMILES) | Pre-emergence activity GR80, SASKR
O=C(N1CCCC1)n1cnc(S(=O)(=O)C(F)(F)C(F)F)n1 [Example 59] | [empty]
CN(Cc1ccccc1)C(=O)n1cnc(S(=O)(=O)C(F)F)n1 [Example 33] | 300 g/ha

What follows are compounds tested on SOLNI (black nightshade) (assay: Pre-emergence herbicidal activity, warm season). Details: GR80 = lowest tested rate (300, 100, 30, 10 g/ha) with 80% or greater inhibition; approx. 14 days after treating; 30/21° C.
Assay type: in vivo, Solanum nigrum
Protocol: as §1, §2, §3, §4

Structure (SMILES) | Pre-emergence activity (GR80) SOLNI [g/ha]
O=C(N1CCCC1)n1cnc(S(=O)(=O)C(F)(F)C(F)F)n1 [Example 59] | 300

What follows are compounds tested on SINAR (wild mustard) (assay: Pre-emergence herbicidal activity, cool season). Details: lowest tested rate with 80% or greater inhibition; rates 300, 100, 30, 10 g/ha; about 14 days.
Assay type: in vivo, Sinapis arvensis
Protocol: as §1, §2, §3, §4

Structure (SMILES) | Pre-emergence activity GR80, SINAR
O=C(N1CCCC1)n1cnc(S(=O)(=O)C(F)(F)C(F)F)n1 [Example 59] | [empty]
CN(Cc1ccccc1)C(=O)n1cnc(S(=O)(=O)C(F)F)n1 [Example 33] | [empty]

What follows are compounds tested on DIGSA (large crabgrass) (assay: Pre-emergence herbicidal activity, warm season). Details: GR80 = lowest tested rate (300, 100, 30, 10 g/ha) with 80% or greater inhibition; approx. 14 days after treating; 30/21° C.
Assay type: in vivo, Digitaria sanguinalis
Protocol: as §1, §2, §3, §4

Structure (SMILES) | Pre-emergence activity (GR80) DIGSA [g/ha]
O=C(N1CCCC1)n1cnc(S(=O)(=O)C(F)(F)C(F)F)n1 [Example 59] | 30

The compounds below were run on STEME (common chickweed) (assay: Pre-emergence herbicidal activity, cool season). Details: lowest tested rate with 80% or greater inhibition; rates 300, 100, 30, 10 g/ha; about 14 days.
Assay type: in vivo, Stellaria media
Protocol: as §1, §2, §3, §4

Structure (SMILES) | Pre-emergence activity GR80, STEME [g/ha]
O=C(N1CCCC1)n1cnc(S(=O)(=O)C(F)(F)C(F)F)n1 [Example 59] | 300
CN(Cc1ccccc1)C(=O)n1cnc(S(=O)(=O)C(F)F)n1 [Example 33] | 100

These compounds were tested on LAMPU (purple deadnettle) (assay: Pre-emergence herbicidal activity, cool season). Details: lowest tested rate with 80% or greater inhibition; rates 300, 100, 30, 10 g/ha; about 14 days.
Assay type: in vivo, Lamium purpureum
Protocol: as §1, §2, §3, §4

Structure (SMILES) | Pre-emergence activity GR80, LAMPU [g/ha]
O=C(N1CCCC1)n1cnc(S(=O)(=O)C(F)(F)C(F)F)n1 [Example 59] | 100
CN(Cc1ccccc1)C(=O)n1cnc(S(=O)(=O)C(F)F)n1 [Example 33] | 30

The compounds below were run on SETVI (green foxtail) (assay: Pre-emergence herbicidal activity, cool season). Details: GR80 = lowest tested rate (300, 100, 30, 10 g/ha) with 80% or greater inhibition; approx. 14 days after treating; 18/13° C.
Assay type: in vivo, Setaria viridis
Protocol: as §1, §2, §3, §4

Structure (SMILES) | Pre-emergence activity (GR80) SETVI [g/ha]
O=C(N1CCCC1)n1cnc(S(=O)(=O)C(F)(F)C(F)F)n1 [Example 59] | 300

Each compound was assayed on SETFA (giant foxtail) (assay: Pre-emergence herbicidal activity, warm season). Details: GR80 = lowest tested rate (300, 100, 30, 10 g/ha) with 80% or greater inhibition; approx. 14 days after treating; 30/21° C.
Assay type: in vivo, Setaria faberi
Protocol: as §1, §2, §3, §4

Structure (SMILES) | Pre-emergence activity (GR80) SETFA [g/ha]
O=C(N1CCCC1)n1cnc(S(=O)(=O)C(F)(F)C(F)F)n1 [Example 59] | 300

What follows are compounds tested on VERPE (creeping speedwell) (assay: Pre-emergence herbicidal activity, cool season). Details: lowest tested rate with 80% or greater inhibition; rates 300, 100, 30, 10 g/ha; about 14 days.
Assay type: in vivo, Veronica persicaria
Protocol: as §1, §2, §3, §4

Structure (SMILES) | Pre-emergence activity GR80, VERPE
O=C(N1CCCC1)n1cnc(S(=O)(=O)C(F)(F)C(F)F)n1 [Example 59] | [empty]
CN(Cc1ccccc1)C(=O)n1cnc(S(=O)(=O)C(F)F)n1 [Example 33] | 300 g/ha

These compounds were tested on PANMI (wild proso millet) (assay: Pre-emergence herbicidal activity, warm season). Details: GR80 = lowest tested rate (300, 100, 30, 10 g/ha) with 80% or greater inhibition; approx. 14 days after treating; 30/21° C.
Assay type: in vivo, Panicum miliaceum
Protocol: as §1, §2, §3, §4

Structure (SMILES) | Pre-emergence activity (GR80) PANMI [g/ha]
O=C(N1CCCC1)n1cnc(S(=O)(=O)C(F)(F)C(F)F)n1 [Example 59] | 100
CN(Cc1ccccc1)C(=O)n1cnc(S(=O)(=O)C(F)F)n1 [Example 33] | 300

The compounds below were run on BRAPP (broadleaf signalgrass) (assay: Pre-emergence herbicidal activity, warm season). Details: GR80 = lowest tested rate (300, 100, 30, 10 g/ha) with 80% or greater inhibition; approx. 14 days after treating; 30/21° C.
Assay type: in vivo, Brachiaria platyphylla
Protocol: as §1, §2, §3, §4

Structure (SMILES) | Pre-emergence activity (GR80) BRAPP [g/ha]
O=C(N1CCCC1)n1cnc(S(=O)(=O)C(F)(F)C(F)F)n1 [Example 59] | 100

What follows are compounds tested on ECHCG (barnyardgrass) (assay: Pre-emergence herbicidal activity, warm season). Details: GR80 = lowest tested rate (300, 100, 30, 10 g/ha) with 80% or greater inhibition; approx. 14 days after treating; 30/21° C.
Assay type: in vivo, Echinochloa crus-galli
Protocol: as §1, §2, §3, §4

Structure (SMILES) | Pre-emergence activity (GR80) ECHCG [g/ha]
O=C(N1CCCC1)n1cnc(S(=O)(=O)C(F)(F)C(F)F)n1 [Example 59] | 300

Each compound was assayed on POLCO (wild buckwheat) (assay: Pre-emergence herbicidal activity, cool season). Details: lowest tested rate with 80% or greater inhibition; rates 300, 100, 30, 10 g/ha; about 14 days.
Assay type: in vivo, Polygonum convolvulus
Protocol: as §1, §2, §3, §4

Structure (SMILES) | Pre-emergence activity GR80, POLCO
O=C(N1CCCC1)n1cnc(S(=O)(=O)C(F)(F)C(F)F)n1 [Example 59] | 300 g/ha
CN(Cc1ccccc1)C(=O)n1cnc(S(=O)(=O)C(F)F)n1 [Example 33] | [empty]

Each compound was assayed on CHEAL (common lambsquarters) (assay: Pre-emergence herbicidal activity, warm season). Details: GR80 = lowest tested rate (300, 100, 30, 10 g/ha) with 80% or greater inhibition; approx. 14 days after treating; 30/21° C.
Assay type: in vivo, Chenopodium album
Protocol: as §1, §2, §3, §4

Structure (SMILES) | Pre-emergence activity (GR80) CHEAL [g/ha]
O=C(N1CCCC1)n1cnc(S(=O)(=O)C(F)(F)C(F)F)n1 [Example 59] | 100

These compounds were tested on SORHA (johnsongrass (seedling)) (assay: Pre-emergence herbicidal activity, warm season). Details: GR80 = lowest tested rate (300, 100, 30, 10 g/ha) with 80% or greater inhibition; approx. 14 days after treating; 30/21° C.
Assay type: in vivo, Sorghum halepense
Protocol: as §1, §2, §3, §4

Structure (SMILES) | Pre-emergence activity (GR80) SORHA [g/ha]
O=C(N1CCCC1)n1cnc(S(=O)(=O)C(F)(F)C(F)F)n1 [Example 59] | 100

These compounds were tested on AMARE (redroot pigweed) (assay: Pre-emergence herbicidal activity, warm season). Details: GR80 = lowest tested rate (300, 100, 30, 10 g/ha) with 80% or greater inhibition; approx. 14 days after treating; 30/21° C.
Assay type: in vivo, Amaranthus retroflexus
Protocol: as §1, §2, §3, §4

Structure (SMILES) | Pre-emergence activity (GR80) AMARE [g/ha]
O=C(N1CCCC1)n1cnc(S(=O)(=O)C(F)(F)C(F)F)n1 [Example 59] | 100

These compounds were tested on GALAP (catchweed bedstraw) (assay: Pre-emergence herbicidal activity, cool season). Details: lowest tested rate with 80% or greater inhibition; rates 300, 100, 30, 10 g/ha; about 14 days.
Assay type: in vivo, Galium aparine
Protocol: as §1, §2, §3, §4

Structure (SMILES) | Pre-emergence activity GR80, GALAP
O=C(N1CCCC1)n1cnc(S(=O)(=O)C(F)(F)C(F)F)n1 [Example 59] | 100 g/ha
CN(Cc1ccccc1)C(=O)n1cnc(S(=O)(=O)C(F)F)n1 [Example 33] | [empty]

The compounds below were run on CIRAR (canada thistle (seedling)) (assay: Pre-emergence herbicidal activity, warm season). Details: GR80 = lowest tested rate (300, 100, 30, 10 g/ha) with 80% or greater inhibition; approx. 14 days after treating; 30/21° C.
Assay type: in vivo, Cirsium arvense
Protocol: as §1, §2, §3, §4

Structure (SMILES) | Pre-emergence activity (GR80) CIRAR [g/ha]
O=C(N1CCCC1)n1cnc(S(=O)(=O)C(F)(F)C(F)F)n1 [Example 59] | 300

The compounds below were run on ALOMY (blackgrass) (assay: Pre-emergence herbicidal activity, cool season). Details: GR80 = lowest tested rate (300, 100, 30, 10 g/ha) with 80% or greater inhibition; approx. 14 days after treating; 18/13° C.
Assay type: in vivo, Alopecurus myosuroides
Protocol: as §1, §2, §3, §4

Structure (SMILES) | Pre-emergence activity (GR80) ALOMY [g/ha]
O=C(N1CCCC1)n1cnc(S(=O)(=O)C(F)(F)C(F)F)n1 [Example 59] | 300

Each compound was assayed on AGSST (creeping bentgrass) (assay: Pre-emergence herbicidal activity, cool season). Details: GR80 = lowest tested rate (300, 100, 30, 10 g/ha) with 80% or greater inhibition; approx. 14 days after treating; 18/13° C.
Assay type: in vivo, Agrostis stolonifera
Protocol: as §1, §2, §3, §4

Structure (SMILES) | Pre-emergence activity (GR80) AGSST [g/ha]
O=C(N1CCCC1)n1cnc(S(=O)(=O)C(F)(F)C(F)F)n1 [Example 59] | 300
CN(Cc1ccccc1)C(=O)n1cnc(S(=O)(=O)C(F)F)n1 [Example 33] | 300

The compounds below were run on DATST (jimsonweed) (assay: Pre-emergence herbicidal activity, warm season). Details: GR80 = lowest tested rate (300, 100, 30, 10 g/ha) with 80% or greater inhibition; approx. 14 days after treating; 30/21° C.
Assay type: in vivo, Datura stramonium
Protocol: as §1, §2, §3, §4

Structure (SMILES) | Pre-emergence activity (GR80) DATST [g/ha]
CN(Cc1ccccc1)C(=O)n1cnc(S(=O)(=O)C(F)F)n1 [Example 33] | 300
